Among the test systems are CAKI-1 renal; EKVX NSCLC; HS 578T breast; IGROV1 ovarian; LOX IMVI melanoma; MDA-MB-435; NCI-H460 lung; OVCAR-3 ovarian; OVCAR-5 ovarian; TK-10 renal.
Holding throughout (experiment): NCI tumour cell line growth inhibition, 48 h

“And” between values parts separate entries of the source, which are not always exact repeats. Equal entries are not always repeated.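 Step 1: Grow cells in 96-well plates. Step 2: Expose to compound for 48 hours at 5 concentrations. Step 3: Interpolate endpoints linearly; if unreached, use highest concentration. At the GI50, growth is halved. TGI is the concentration that stops growth completely.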

As to `c1cnn2ncc(-c3ccnc(NCCCN4CCOCC4)n3)c2c1`, the GI50 in the experiment on CAKI-1 renal is 6.64 µM; with EKVX NSCLC, 6.67 µM; in the experiment with HS 578T breast, 6.2 µM; in the experiment with IGROV1 ovarian, 7.51 µM; in the experiment with LOX IMVI melanoma, 5.18 µM; in the experiment on MDA-MB-435 it was 7.56 µM. Also, the GI50 in the experiment on NCI-H460 lung was 6.56 µM; with OVCAR-3 ovarian it was 6.16 µM; in the experiment on OVCAR-5 ovarian, 7.28 µM; in the experiment on TK-10 renal, 6.67 µM. Also, the TGI is more than 25 µM in the experiment on CAKI-1 renal; more than 25 µM in the experiment with EKVX NSCLC; more than 23.1 µM in the experiment on HS 578T breast; more than 25 µM with IGROV1 ovarian; more than 25 µM in the experiment on LOX IMVI melanoma; more than 25 µM in the experiment on MDA-MB-435. For the same molecule, the TGI in the experiment with NCI-H460 lung is more than 25 µM; in the experiment with OVCAR-3 ovarian, more than 21.9 µM; with OVCAR-5 ovarian, 24.9 µM; in the experiment with TK-10 renal, more than 23.2 µM.

Regarding `OCC1OC(n2cnc3c(N/N=C\c4ccccn4)ncnc32)C(O)C1O` (stereo unspecified), the GI50 in the experiment with CAKI-1 renal is 0.202 µM; in the experiment on EKVX NSCLC, 0.49 µM; with HS 578T breast, 1.78 µM; in the experiment with IGROV1 ovarian it was 0.41 µM; in the experiment on LOX IMVI melanoma, 0.0971 µM; with MDA-MB-435 it was 0.43 µM. Further, the GI50 is 0.384 µM in the experiment with NCI-H460 lung, 0.319 µM in the experiment with OVCAR-3 ovarian, 0.467 µM in the experiment on OVCAR-5 ovarian and 0.159 µM with TK-10 renal. In addition, the TGI in the experiment on CAKI-1 renal was 0.809 µM; in the experiment on EKVX NSCLC, 97 µM; with HS 578T breast, more than 51.4 µM; in the experiment on IGROV1 ovarian, 8.98 µM; in the experiment with MDA-MB-435, more than 100 µM; with NCI-H460 lung, 4.53 µM. The TGI is 3.04 µM in the experiment on OVCAR-3 ovarian, more than 100 µM in the experiment with OVCAR-5 ovarian and more than 100 µM in the experiment with TK-10 renal.

`C=CC(=O)Nc1cccc(Oc2nc(Nc3ccc(N4CCN(C)CC4)cc3)nc3ccsc23)c1`: the GI50 is 1.99 µM with CAKI-1 renal; 1.55 µM and 2.39 µM in the experiment on EKVX NSCLC; 6.16 µM and 4.88 µM in the experiment on HS 578T breast; 1.42 µM and 1.75 µM in the experiment on IGROV1 ovarian; 1.69 µM and 1.75 µM with LOX IMVI melanoma; 1.71 µM and 1.93 µM in the experiment on MDA-MB-435. The GI50 with NCI-H460 lung is 3.26 µM and 3.19 µM; with OVCAR-3 ovarian it was 2.11 µM and 1.88 µM; in the experiment on OVCAR-5 ovarian, 3.61 µM and 8.09 µM; in the experiment with TK-10 renal, 0.398 µM and 0.6 µM. The TGI is more than 10 µM in the experiment with CAKI-1 renal; > 10 µM and 16.7 µM with EKVX NSCLC; > 10 µM and 41.3 µM in the experiment with HS 578T breast; 3.05 µM and 4.58 µM in the experiment with IGROV1 ovarian; 3.09 µM and 3.33 µM in the experiment with LOX IMVI melanoma; 3.69 µM and 4.12 µM in the experiment with MDA-MB-435. The TGI with NCI-H460 lung was > 10 µM and 12.6 µM; in the experiment with OVCAR-3 ovarian, 9.29 µM and 4.79 µM; in the experiment with OVCAR-5 ovarian, > 10 µM and 25.2 µM; with TK-10 renal, 2.56 µM and 4.04 µM.

For the molecule `NC(=O)c1csc(C2OC(CO)C(O)C2O)n1` (stereo unspecified), the GI50 in the experiment on CAKI-1 renal is 65.8 µM and > 50.1 µM; in the experiment with HS 578T breast, 77.7 µM; in the experiment with IGROV1 ovarian, more than 72.8 µM; in the experiment with LOX IMVI melanoma it was more than 53.2 µM; in the experiment with MDA-MB-435, 43.7 µM; with OVCAR-3 ovarian it was 22.2 µM. Further, the GI50 in the experiment with TK-10 renal is more than 74.5 µM. Besides, the TGI in the experiment on CAKI-1 renal is 1220 µM; in the experiment on EKVX NSCLC, 5940 µM; in the experiment with HS 578T breast, 875 µM; in the experiment on IGROV1 ovarian, 5650 µM; with LOX IMVI melanoma, 7900 µM; in the experiment with MDA-MB-435 it was more than 4870 µM. Also, the TGI in the experiment with NCI-H460 lung was more than 10000 µM; in the experiment with OVCAR-3 ovarian, 7030 µM; with OVCAR-5 ovarian, more than 9720 µM; in the experiment with TK-10 renal, more than 10000 µM.

Take `CN1CCN(C(=O)c2cc(-c3ccc4ncnc(N5CCc6cc(F)c(Cl)cc65)c4c3)cnc2N)CC1`: the GI50 in the experiment on CAKI-1 renal was 0.165 µM; in the experiment on EKVX NSCLC it was 0.232 µM; with HS 578T breast it was 0.116 µM; in the experiment on IGROV1 ovarian, 0.0467 µM; in the experiment on LOX IMVI melanoma, 0.192 µM; with MDA-MB-435 it was 0.201 µM. Moreover, the GI50 was 0.224 µM in the experiment on NCI-H460 lung, 0.248 µM in the experiment on OVCAR-3 ovarian, 0.29 µM with OVCAR-5 ovarian and 0.178 µM in the experiment with TK-10 renal. Moreover, the TGI with CAKI-1 renal stood at 1.21 µM; in the experiment with EKVX NSCLC it was 1.55 µM; in the experiment with HS 578T breast, 0.491 µM; in the experiment with IGROV1 ovarian, 0.595 µM; in the experiment on LOX IMVI melanoma it was 1.44 µM; with MDA-MB-435 it was 1.2 µM. The TGI with NCI-H460 lung turned out to be 9.14 µM; in the experiment on OVCAR-3 ovarian, 1.49 µM; in the experiment on OVCAR-5 ovarian, 13.8 µM; in the experiment on TK-10 renal it was 1.45 µM.

On to `O=C1OCC2=C1C(c1ccc(Cl)c(Cl)c1)c1cc3c(cc1N2CCO)OCCO3` (stereo unspecified), for which the GI50 is 0.277 µM in the experiment with CAKI-1 renal; 1.23 µM with EKVX NSCLC; 0.273 µM in the experiment on HS 578T breast; 0.542 µM with IGROV1 ovarian; 0.316 µM in the experiment on LOX IMVI melanoma; 0.102 µM in the experiment with MDA-MB-435. Besides, the GI50 in the experiment on NCI-H460 lung is 0.192 µM; with OVCAR-3 ovarian, 0.127 µM; with OVCAR-5 ovarian, 0.736 µM; with TK-10 renal, 0.513 µM. For the same molecule, the TGI is more than 35.5 µM in the experiment with CAKI-1 renal; more than 38.6 µM in the experiment on EKVX NSCLC; more than 37.6 µM with HS 578T breast; more than 33 µM in the experiment with IGROV1 ovarian; 10.8 µM in the experiment with LOX IMVI melanoma; 0.468 µM in the experiment with MDA-MB-435. The TGI in the experiment on NCI-H460 lung was 5.77 µM; in the experiment on OVCAR-3 ovarian, 0.351 µM; in the experiment on OVCAR-5 ovarian, more than 33.2 µM; in the experiment on TK-10 renal, 20 µM.

On to `O=C(O)CN1CCN(CC(=O)O)CC(=O)[O][Hg][O]C(=O)C1`, for which the GI50 with CAKI-1 renal was 21.5 µM; in the experiment on EKVX NSCLC it was 21 µM; with HS 578T breast it was more than 43.9 µM; with IGROV1 ovarian it was 7.29 µM; with LOX IMVI melanoma it was 10.3 µM; in the experiment with MDA-MB-435 it was 16.2 µM. The GI50 in the experiment on NCI-H460 lung is 19.8 µM; in the experiment on OVCAR-3 ovarian, 16.9 µM; in the experiment on OVCAR-5 ovarian, 18.7 µM; with TK-10 renal it was 16 µM. Besides, the TGI is 36.4 µM in the experiment on CAKI-1 renal; 41.5 µM in the experiment with EKVX NSCLC; more than 71.3 µM in the experiment with HS 578T breast; 28.4 µM in the experiment on IGROV1 ovarian; 26.7 µM in the experiment on LOX IMVI melanoma; 30.5 µM with MDA-MB-435. Also, the TGI in the experiment on NCI-H460 lung was more than 54.2 µM; in the experiment on OVCAR-3 ovarian it was 30.6 µM; in the experiment on OVCAR-5 ovarian it was 38.5 µM; in the experiment with TK-10 renal it was 29.5 µM.

These data come from PubChem BioAssay (NCI).
